Assay results published in ChEMBL document CHEMBL5143521, “Identification of a selective BRD4 PROTAC with potent antiproliferative effects in AR-positive prostate cancer based on a dual BET/PLK1 inhibitor” (Eur J Med Chem, 2022).
Calls of active or inactive are those of the source. The calls are words filed in the database; no cut-off is given here.

Assays:
[1] = target: T1, Protein cereblon/Bromodomain-containing protein 4 (Homo sapiens) (UniProt O60885+Q96SW2); test: Protac activity at BRD4/CRBN in AR-positive human VCaP cells assessed as degradation of BRD4 by measuring downregulation of BRD4 expression level at 1 nM by Western blot analysis; assay type: cell-based; conditions: time 2-48 hrs, TDE = time-dependent effect
[2] = target: Serine/threonine-protein kinase PLK1 (Homo sapiens, UniProt P53350); test: Inhibition of recombinant full length human PLK1 using casein as substrate incubated for 40 mins in presence of [gamma-33P]-ATP by radiometric scintillation counting method
[3] = target: Bromodomain-containing protein 4 (Homo sapiens, UniProt O60885); test: Inhibition of BRD4 (unknown origin) by alpha-screen assay
MV4-11 = test: Antiproliferative activity against human MV4-11 cells assessed as reduction in cell viability measured after 4 days by MTT assay; assay type: functional, cell-based; conditions: MV4-11, 96 h
[4] = target: T1, Protein cereblon/Bromodomain-containing protein 4 (Homo sapiens); test: Protac activity at BRD4/CRBN in human VCaP cells assessed as degradation of BRD4 by measuring downregulation of BRD4 expression level at 10 nM incubated for 24 hrs by immunoblotting analysis; assay type: cell-based
PC-3 = test: Antiproliferative activity against AR-negative human castration resistant PC-3 cells assessed as reduction in cell viability measured after 4 days by MTT assay; assay type: functional, cell-based; conditions: PC-3, 96 h
VCaP [5] = test: Inhibition of c-Myc expression level in human VCap cells at 10 nM incubated for 24 hrs by immunoblotting analysis; assay type: functional, cell-based
VCaP [6] = test: Antiproliferative activity against AR-positive human VCaP cells assessed as reduction in cell viability measured after 4 days by MTT assay; assay type: functional, cell-based; conditions: 96 h
LNCaP [7] = test: Antiproliferative activity against AR-positive harmone sensitive human LNCaP cells assessed as reduction in cell viability measured after 4 days by MTT assay; assay type: functional, cell-based; conditions: 96 h
CWR22R [8] = test: Antiproliferative activity against AR-positive human 22Rv1 cells assessed as reduction in cell viability at 100 to 300 nM incubated for 3 days followed by compound washout and measured after 8 days; assay type: functional; conditions: dose 100-300 nM, time 3 day
[9] = target: T1, Protein cereblon/Bromodomain-containing protein 4 (Homo sapiens); test: Protac activity at BRD4/CRBN in AR-positive harmone sensitive human LNCaP cells assessed as degradation of BRD4 by measuring downregulation of BRD4 expression level at 1 nM by Western blot analysis; assay type: cell-based; conditions: time 2-48 hrs, TDE = time-dependent effect
[10] = target: T1, Protein cereblon/Bromodomain-containing protein 4 (Homo sapiens); test: Protac activity at BRD4/CRBN in AR-positive human 22Rv1 cells assessed as degradation of BRD4 by measuring downregulation of BRD4 expression level at 1 nM by Western blot analysis; assay type: cell-based; conditions: time 2-48 hrs, TDE = time-dependent effect
LNCaP [11] = test: Downregulation of c-Myc […] expression level in AR-positive harmone sensitive human LNCaP cells at 1 nM by Western blot analysis; assay type: functional, cell-based; conditions: time 2-48 hrs, TDE = time-dependent effect
CWR22R [12] = test: Downregulation of c-Myc […] expression level in AR-positive human 22Rv1 cells at 1 nM by Western blot analysis; assay type: functional, cell-based; conditions: time 2-48 hrs, TDE = time-dependent effect
VCaP [13] = test: Downregulation of c-Myc […] expression level in AR-positive human VCaP cells at 1 nM by Western blot analysis; assay type: functional, cell-based; conditions: time 2-48 hrs, TDE = time-dependent effect
[14] = target: T1, Protein cereblon/Bromodomain-containing protein 4 (Homo sapiens); test: Protac activity at BRD4/CRBN in AR-positive human 22Rv1 cells assessed as degradation of BRD4 by measuring downregulation of BRD4 expression level measured after 24 hrs by Western blot analysis; assay type: cell-based; conditions: dose 1-10000 nM, DDE = dose-dependent effect
[15] = target: T1, Protein cereblon/Bromodomain-containing protein 4 (Homo sapiens); test: Protac activity at BRD4/CRBN in AR-positive human VCaP cells assessed as degradation of BRD4 by measuring downregulation of BRD4 expression level measured after 24 hrs by Western blot analysis; assay type: cell-based; conditions: dose 1-10000 nM, DDE = dose-dependent effect
CWR22R [16] = test: Downregulation of c-Myc […] expression level in AR-positive human 22Rv1 cells measured after 24 hrs by Western blot analysis; assay type: functional, cell-based; conditions: dose 1-10000 nM, DDE = dose-dependent effect
[17] = target: T1, Protein cereblon/Bromodomain-containing protein 4 (Homo sapiens); test: Protac activity at BRD4/CRBN in AR-negative human castration resistant DU-145 cells assessed as degradation of BRD4 by measuring downregulation of BRD4 expression level at 1 nM by Western blot analysis; assay type: cell-based; conditions: time 2-48 hrs, TDE = time-dependent effect
[18] = target: T1, Protein cereblon/Bromodomain-containing protein 4 (Homo sapiens); test: Protac activity at BRD4/CRBN in AR-negative human castration resistant DU-145 cells assessed as degradation of BRD4 by measuring downregulation of BRD4 expression level measured after 24 hrs by Western blot analysis; assay type: cell-based; conditions: dose 1-10000 nM, DDE = dose-dependent effect
VCaP [19] = test: Downregulation of c-Myc mRNA expression level in AR-positive human VCaP cells at 100 nM measured after 24 hrs by RT-qPCR analysis; assay type: functional, cell-based
[20] = target: T1, Protein cereblon/Bromodomain-containing protein 4 (Homo sapiens); test: Protac activity at BRD4/CRBN in AR-positive human 22Rv1 cells assessed as degradation of BRD4 at 100 nM measured after 3 hrs in presence of cycloheximide by Western blot analysis; assay type: cell-based
[21] = target: T1, Protein cereblon/Bromodomain-containing protein 4 (Homo sapiens); test: Protac activity at BRD4/CRBN in AR-positive human VCaP cells assessed as degradation of BRD4 at 1 uM measured after 24 hrs in presence of MG-132 by Western blot analysis; assay type: cell-based
VCaP [22] = test: Downregulation of AR protein expression in AR-positive human VCaP cells at 100 nM measured after 48 hrs by Western blot analysis; assay type: functional, cell-based
VCaP [23] = test: Downregulation of PSA protein expression in AR-positive human VCaP cells at 100 nM measured after 48 hrs by Western blot analysis; assay type: functional, cell-based
VCaP [24] = test: Downregulation of TMPRSS2 gene expression in AR-positive human VCaP cells at 100 nM measured after 24 hrs by RT-qPCR analysis; assay type: functional, cell-based
VCaP [25] = test: Downregulation of ERG gene expression in AR-positive human VCaP cells at 100 nM measured after 24 hrs by RT-qPCR analysis; assay type: functional, cell-based
VCaP [26] = test: Downregulation of FKBP5 gene expression in AR-positive human VCaP cells at 100 nM measured after 24 hrs by RT-qPCR analysis; assay type: functional, cell-based
CWR22R [27] = test: Induction of cell cycle arrest in AR-positive human 22Rv1 cells assessed as downregulation of CDK2 expression at 100 to 1000 nM measured after 72 hrs by Western blot analysis; assay type: functional, cell-based; conditions: dose 100-1000 nM
CWR22R [28] = test: Induction of cell cycle arrest in AR-positive human 22Rv1 cells assessed as downregulation of CDK4 expression at 100 to 1000 nM measured after 72 hrs by Western blot analysis; assay type: functional, cell-based; conditions: dose 100-1000 nM
CWR22R [29] = test: Induction of cell cycle arrest in AR-positive human 22Rv1 cells assessed as downregulation of cyclin D1 expression at 100 to 1000 nM measured after 72 hrs by Western blot analysis; assay type: functional, cell-based; conditions: dose 100-1000 nM
CWR22R [30] = test: Induction of cell cycle arrest in AR-positive human 22Rv1 cells assessed as downregulation of cyclin B1 expression at 100 to 1000 nM measured after 72 hrs by Western blot analysis; assay type: functional, cell-based; conditions: dose 100-1000 nM
CWR22R [31] = test: Induction of apoptosis in AR-positive human 22Rv1 cells assessed as increase in early apoptotic cells measured after 72 hrs by Annexin V-FITC/PI staining based flow cytometry method; assay type: functional, cell-based; conditions: dose 100-1000 nM, DDE = dose-dependent effect
CWR22R [32] = test: Induction of apoptosis in AR-positive human 22Rv1 cells assessed as increase in late apoptotic cells measured after 72 hrs by Annexin V-FITC/PI staining based flow cytometry method; assay type: functional, cell-based; conditions: dose 100-1000 nM, DDE = dose-dependent effect
CWR22R [33] = test: Induction of apoptosis in AR-positive human 22Rv1 cells assessed as upregulation of cleaved PARP level measured after 72 hrs by Annexin V-FITC/PI staining based flow cytometry method; assay type: functional, cell-based; conditions: dose 100-1000 nM, DDE = dose-dependent effect

T1 sequence (Q96SW2 whole entry, looked up, other chains not shown): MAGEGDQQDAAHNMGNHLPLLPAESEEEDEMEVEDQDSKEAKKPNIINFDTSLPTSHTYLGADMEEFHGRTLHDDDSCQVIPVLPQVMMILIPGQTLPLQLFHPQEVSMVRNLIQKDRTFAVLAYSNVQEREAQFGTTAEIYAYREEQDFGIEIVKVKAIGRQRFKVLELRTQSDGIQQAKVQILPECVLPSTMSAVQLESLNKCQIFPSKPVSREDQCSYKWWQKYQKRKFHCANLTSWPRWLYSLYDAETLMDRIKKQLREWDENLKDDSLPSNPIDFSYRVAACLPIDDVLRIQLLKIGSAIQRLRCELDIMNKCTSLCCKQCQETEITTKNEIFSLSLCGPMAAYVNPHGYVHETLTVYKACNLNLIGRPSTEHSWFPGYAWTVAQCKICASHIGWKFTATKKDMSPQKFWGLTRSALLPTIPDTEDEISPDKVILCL
Chain of Serine/threonine-protein kinase PLK1 (P53350 whole entry): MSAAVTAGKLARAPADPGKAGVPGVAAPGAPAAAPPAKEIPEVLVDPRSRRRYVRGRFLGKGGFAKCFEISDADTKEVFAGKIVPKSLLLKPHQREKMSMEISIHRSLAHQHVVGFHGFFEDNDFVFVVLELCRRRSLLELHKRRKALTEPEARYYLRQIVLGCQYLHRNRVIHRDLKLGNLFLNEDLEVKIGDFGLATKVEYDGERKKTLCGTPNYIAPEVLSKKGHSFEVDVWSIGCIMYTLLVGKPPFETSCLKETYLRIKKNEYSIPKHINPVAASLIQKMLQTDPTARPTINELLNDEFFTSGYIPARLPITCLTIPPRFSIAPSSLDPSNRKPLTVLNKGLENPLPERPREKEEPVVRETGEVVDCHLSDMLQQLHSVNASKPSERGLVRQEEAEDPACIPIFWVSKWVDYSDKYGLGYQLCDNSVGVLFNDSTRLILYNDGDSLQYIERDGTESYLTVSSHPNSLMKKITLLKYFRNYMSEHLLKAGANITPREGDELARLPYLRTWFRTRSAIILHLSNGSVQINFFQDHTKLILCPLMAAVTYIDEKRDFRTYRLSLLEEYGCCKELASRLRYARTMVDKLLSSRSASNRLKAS

CC[C@@H]1c2nnc(C)n2-c2cnc(Nc3ccc(C(=O)NC4CCN(C(=O)COc5cccc6c5C(=O)N(C5CCC(=O)NC5=O)C6=O)CC4)cc3OC)nc2N1CC1CCCCC1 (stereo not given in full)
Activity [1]: Tde
IC50 [2]: 985 nM
IC50 [3]: 254 nM
IC50 (MV4-11): 3 nM
Activity [4]: Active
IC50 (PC-3): 2440 nM
inhibition (VCaP [5]): Active
IC50 (VCaP [6]): 16 nM
IC50 (LNCaP [7]): 21 nM
inhibition (INH) (CWR22R [8]): 100%
Activity [9]: Tde
Activity [10]: Tde
Activity (LNCaP [11]): Tde
Activity (CWR22R [12]): Tde
Activity (VCaP [13]): Tde
Activity [14]: Dde
Activity [15]: Dde
Activity (CWR22R [16]): Dde
Activity [17]: Tde
Activity [18]: Dde
Activity (VCaP [19]): Active
Activity [20]: Active
Activity [21]: Active
Activity (VCaP [22]): Active
Activity (VCaP [23]): Active
Activity (VCaP [24]): Active
Activity (VCaP [25]): Active
Activity (VCaP [26]): Active
Activity (CWR22R [27]): Active
Activity (CWR22R [28]): Active
Activity (CWR22R [29]): Active
Activity (CWR22R [30]): Active
Activity (CWR22R [31]): Dde
Activity (CWR22R [32]): Dde
Activity (CWR22R [33]): Dde
